Measurements taken from US6461997B1, “Triazole sulfones having herbicidal activity” (Monsanto Technology LLC, priority 1999, dated 2002).

Experiments:
[1] = tested on: ECHCG (barnyardgrass); assay: Pre-emergence herbicidal activity, warm season; format: in vivo, Echinochloa crus-galli
In short: (§1)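 Seeds sown in sterilised fertilised topsoil received surface-applied compound in 50:50 acetone/water, typically at 300, 100, 30 and 10 g/ha, then greenhouse-grown at 30/21° C (warm-season species) or 18/13° C (cool-season species). Percent inhibition versus untreated plants was scored at about 14 days, giving GR80; an asterisk marks activity short of 80% at the top rate.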

[2] = tested on: wheat (TRZAW); assay: Selectivity test, PPI, cool season crop; format: in vivo, Triticum aestivum; details: Triticum aestivum, PPI application, read-out: Percent inhibition TRZAW
In short: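 Pre-plant incorporated: compound in organic solvent sprayed onto cover soil, mixed and laid over seeds; untreated soil for controls. Greenhouse after treatment: warm season 30/21° C., cool season 18/13° C. day/night. Percent inhibition versus untreated plants scored about 14 days after planting.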

[3] = tested on: SORHA (johnsongrass (seedling)); assay: Pre-emergence herbicidal activity, warm season; format: in vivo, Sorghum halepense
In short: as §1

[4] = tested on: AMARE (redroot pigweed); assay: Pre-emergence herbicidal activity, warm season; format: in vivo, Amaranthus retroflexus
In short: as §1

[5] = tested on: LAMPU (purple deadnettle); assay: Pre-plant incorporated (PPI) herbicidal activity, cool season; format: in vivo, Lamium purpureum
In short: (§2)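 Greenhouse PPI test with treated cover soil over seeds; % inhibition vs untreated at about 14 days.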

[6] = tested on: BRAPP (broadleaf signalgrass); assay: Pre-emergence herbicidal activity, warm season; format: in vivo, Brachiaria platyphylla
In short: as §1

[7] = tested on: SORVU (shattercane); assay: Pre-plant incorporated (PPI) herbicidal activity, warm season; format: in vivo, Sorghum vulgare
In short: as §2

[8] = tested on: PANDI (fall panicum); assay: Pre-emergence herbicidal activity, warm season; format: in vivo, Panicum dichotomiflorum; details: GR80 = lowest tested rate (300, 100, 30, 10 g/ha) with 80% or greater inhibition; approx. 14 days after treating; 30/21° C.
In short: as §1

[9] = tested on: SETVI (green foxtail); assay: Pre-plant incorporated (PPI) herbicidal activity, cool season; format: in vivo, Setaria viridis
In short: as §2

[10] = tested on: AGSST (creeping bentgrass); assay: Pre-emergence herbicidal activity, cool season; format: in vivo, Agrostis stolonifera; details: GR80 = lowest tested rate (300, 100, 30, 10 g/ha) with 80% or greater inhibition; approx. 14 days after treating; 18/13° C.
In short: as §1

[11] = tested on: ALOMY (blackgrass); assay: Pre-plant incorporated (PPI) herbicidal activity, cool season; format: in vivo, Alopecurus myosuroides
In short: as §2

[12] = GR80 = lowest tested rate (300, 100, 30, 10 g/ha) with 80% or greater inhibition, approx. 14 days after treating, 30/21° C.
[13] = pre-plant incorporated, lowest tested rate with 80% or greater inhibition, about 14 days

Question: Which results are given for `CCN(CC)C(=O)n1cnc(S(=O)(=O)C(F)(F)Br)n1` [Example 1, 3-(bromodifluoromethylsulfonyl)-1-(N,N-diethylcarbamoyl)-1,2,4-triazole]?
Answer: inhibition at 10 g/ha ([1]; Echinochloa crus-galli, pre-emergence application, 10 g/ha, read-out: Percent inhibition, weed ECHCG): 0%; inhibition at 30 g/ha ([1]; Echinochloa crus-galli, pre-emergence application, 30 g/ha, read-out: Percent inhibition, weed ECHCG): 10%; inhibition at 100 g/ha ([1]; Echinochloa crus-galli, pre-emergence application, 100 g/ha, read-out: Percent inhibition, weed ECHCG): 45%; inhibition at 300 g/ha ([1]; Echinochloa crus-galli, pre-emergence application, 300 g/ha, read-out: Percent inhibition, weed ECHCG): 80%; inhibition at 900 g/ha ([1]; Echinochloa crus-galli, pre-emergence application, 900 g/ha, read-out: Percent inhibition, weed ECHCG): 95%; Pre-emergence activity (GR80) ECHCG [1, 12]: 30 g/ha; inhibition at 30 g/ha ([2]; 30 g/ha): 0%; inhibition at 100 g/ha ([2]; 100 g/ha): 0%; inhibition at 300 g/ha ([2]; 300 g/ha): 10%; inhibition at 900 g/ha ([2]; 900 g/ha): 30%; Pre-emergence activity (GR80) SORHA [3, 12]: 30 g/ha; inhibition at 10 g/ha ([3]; Sorghum halepense, pre-emergence application, 10 g/ha, read-out: Percent inhibition, weed SORHA): 0%; inhibition at 30 g/ha ([3]; Sorghum halepense, pre-emergence application, 30 g/ha, read-out: Percent inhibition, weed SORHA): 0%; inhibition at 100 g/ha ([3]; Sorghum halepense, pre-emergence application, 100 g/ha, read-out: Percent inhibition, weed SORHA): 50%; inhibition at 300 g/ha ([3]; Sorghum halepense, pre-emergence application, 300 g/ha, read-out: Percent inhibition, weed SORHA): 70%; inhibition at 900 g/ha ([3]; Sorghum halepense, pre-emergence application, 900 g/ha, read-out: Percent inhibition, weed SORHA): 99%; inhibition at 10 g/ha ([4]; Amaranthus retroflexus, pre-emergence application, 10 g/ha, read-out: Percent inhibition, weed AMARE): 0%; inhibition at 30 g/ha ([4]; Amaranthus retroflexus, pre-emergence application, 30 g/ha, read-out: Percent inhibition, weed AMARE): 0%; inhibition at 100 g/ha ([4]; Amaranthus retroflexus, pre-emergence application, 100 g/ha, read-out: Percent inhibition, weed AMARE): 60%; inhibition at 300 g/ha ([4]; Amaranthus retroflexus, pre-emergence application, 300 g/ha, read-out: Percent inhibition, weed AMARE): 50%; inhibition at 900 g/ha ([4]; Amaranthus retroflexus, pre-emergence application, 900 g/ha, read-out: Percent inhibition, weed AMARE): 90%; Pre-emergence activity (GR80) AMARE [4, 12]: 30 g/ha; inhibition at 30 g/ha ([5]; Lamium purpureum, weed, PPI application, 30 g/ha, read-out: Percent inhibition LAMPU): 80%; inhibition at 100 g/ha ([5]; Lamium purpureum, weed, PPI application, 100 g/ha, read-out: Percent inhibition LAMPU): 70%; inhibition at 300 g/ha ([5]; Lamium purpureum, weed, PPI application, 300 g/ha, read-out: Percent inhibition LAMPU): 95%; inhibition at 900 g/ha ([5]; Lamium purpureum, weed, PPI application, 900 g/ha, read-out: Percent inhibition LAMPU): 100%; PPI activity GR80, LAMPU [5, 13]: 100 g/ha; Pre-emergence activity (GR80) BRAPP [6, 12]: * (activity observed, at least at highest rate, but <80% inhibition); inhibition at 10 g/ha ([6]; Urochloa platyphylla, pre-emergence application, 10 g/ha, read-out: Percent inhibition, weed BRAPP): 0%; inhibition at 30 g/ha ([6]; Urochloa platyphylla, pre-emergence application, 30 g/ha, read-out: Percent inhibition, weed BRAPP): 0%; inhibition at 100 g/ha ([6]; Urochloa platyphylla, pre-emergence application, 100 g/ha, read-out: Percent inhibition, weed BRAPP): 40%; inhibition at 300 g/ha ([6]; Urochloa platyphylla, pre-emergence application, 300 g/ha, read-out: Percent inhibition, weed BRAPP): 70%; inhibition at 10 g/ha ([7]; Sorghum bicolor, PPI application, 10 g/ha, read-out: Percent inhibition SORVU): 20%; inhibition at 30 g/ha ([7]; Sorghum bicolor, PPI application, 30 g/ha, read-out: Percent inhibition SORVU): 80%; inhibition at 100 g/ha ([7]; Sorghum bicolor, PPI application, 100 g/ha, read-out: Percent inhibition SORVU): 100%; inhibition at 300 g/ha ([7]; Sorghum bicolor, PPI application, 300 g/ha, read-out: Percent inhibition SORVU): 100%; inhibition at 900 g/ha ([7]; Sorghum bicolor, PPI application, 900 g/ha, read-out: Percent inhibition SORVU): 100%; PPI activity GR80, SORVU [7, 13]: 100 g/ha; Pre-emergence activity (GR80) PANDI [8]: 30 g/ha; inhibition at 30 g/ha ([9]; Setaria viridis, weed, PPI application, 30 g/ha, read-out: Percent inhibition SETVI): 80%; inhibition at 100 g/ha ([9]; Setaria viridis, weed, PPI application, 100 g/ha, read-out: Percent inhibition SETVI): 99%; inhibition at 300 g/ha ([9]; Setaria viridis, weed, PPI application, 300 g/ha, read-out: Percent inhibition SETVI): 100%; inhibition at 900 g/ha ([9]; Setaria viridis, weed, PPI application, 900 g/ha, read-out: Percent inhibition SETVI): 100%; PPI activity GR80, SETVI [9, 13]: 100 g/ha; Pre-emergence activity (GR80) AGSST [10]: 30 g/ha; inhibition at 30 g/ha ([11]; Alopecurus myosuroides, weed, PPI application, 30 g/ha, read-out: Percent inhibition ALOMY): 80%; inhibition at 100 g/ha ([11]; Alopecurus myosuroides, weed, PPI application, 100 g/ha, read-out: Percent inhibition ALOMY): 99%; inhibition at 300 g/ha ([11]; Alopecurus myosuroides, weed, PPI application, 300 g/ha, read-out: Percent inhibition ALOMY): 100%; inhibition at 900 g/ha ([11]; Alopecurus myosuroides, weed, PPI application, 900 g/ha, read-out: Percent inhibition ALOMY): 100%; PPI activity GR80, ALOMY [11, 13]: 100 g/ha
